Laboratory results taken from patent publication US20260285850A1, “SUBSTITUTED OXAZOLIDINONES AND IMIDAZOLINONES AS HERBICIDES” (FMC CORPORATION, priority 2023, published 2026).

Experiments:
Assay type in all cases: in vivo
[1] = tested on: ryegrass, Italian (italian ryegrass, Lolium multiflorum); experiment: Test A postemergence application, visual injury rating 0-100
Outline: (§1)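 Seeds sown in loam-sand blend got a preemergence directed soil spray, or emerged plants (2-10 cm, one- to two-leaf) got a postemergence spray, of compound in non-phytotoxic solvent with surfactant. After 10 days in greenhouse, injury rated visually versus untreated controls on a 0 (no effect) to 100 (complete control) scale.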

corn (Zea mays) [2] = experiment: as above
Outline: as §1

soybean (Glycine max) [3] = experiment: as above
Outline: as §1

[4] = tested on: green foxtail (Setaria viridis); experiment: as above
Outline: as §1

[5] = tested on: oat, wild (wild oat, Avena fatua); experiment: as above
Outline: as §1

[6] = tested on: palmer (palmer amaranth, palmer pigweed, Amaranthus palmeri); experiment: as above
Outline: as §1

kochia (Bassia scoparia) [7] = experiment: as above
Outline: as §1

[8] = tested on: ragweed (common ragweed, Ambrosia artemisiifolia); experiment: as above
Outline: as §1

[9] = tested on: barnyardgrass (Echinochloa crus-galli); experiment: as above
Outline: as §1

[10] = tested on: galium (catchweed bedstraw, Galium aparine); experiment: as above; conditions: Postemergence, 16 g ai/ha, greenhouse 10 days; 0 no effect, 100 complete control
Outline: as §1

[11] = tested on: wheat (Triticum aestivum); experiment: as above
Outline: as §1

[12] = tested on: horseweed (Erigeron canadensis); experiment: as above
Outline: as §1

[13] = tested on: blackgrass (Alopecurus myosuroides); experiment: as above
Outline: as §1

[14] = tested on: ryegrass, Italian (italian ryegrass, Lolium multiflorum); experiment: Test A preemergence soil spray, visual injury rating 0-100; conditions: 10 days
Outline: as §1

corn (Zea mays) [15] = experiment: as above; conditions: 10 days
Outline: as §1

soybean (Glycine max) [16] = experiment: as above; conditions: 10 days
Outline: as §1

[17] = tested on: green foxtail (Setaria viridis); experiment: as above; conditions: 10 days
Outline: as §1

[18] = tested on: oat, wild (wild oat, Avena fatua); experiment: as above; conditions: 10 days
Outline: as §1

[19] = tested on: palmer (palmer amaranth, palmer pigweed, Amaranthus palmeri); experiment: as above; conditions: 10 days
Outline: as §1

kochia (Bassia scoparia) [20] = experiment: as above; conditions: 10 days
Outline: as §1

[21] = tested on: ragweed (common ragweed, Ambrosia artemisiifolia); experiment: as above; conditions: 10 days
Outline: as §1

[22] = tested on: barnyardgrass (Echinochloa crus-galli); experiment: as above; conditions: 10 days
Outline: as §1

[23] = tested on: wheat (Triticum aestivum); experiment: as above; conditions: 10 days
Outline: as §1

[24] = tested on: blackgrass (Alopecurus myosuroides); experiment: as above; conditions: 10 days
Outline: as §1

[25] = tested on: ducksalad (Heteranthera limosa); experiment: Test B flooded paddy test, visual plant response rating 0-100; conditions: 250 g ai/ha, Flood, applied to paddy water, evaluated after 13 days
Outline: (§2)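 Visual evaluation after 13 days. Water-applied treatment, 3 cm flood depth held constant, plants at 2-leaf stage at treatment.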

[26] = tested on: sedge, umbrella (small-flower umbrella sedge, Cyperus difformis); experiment: as above; conditions: 250 g ai/ha, Flood, applied to paddy water, evaluated after 13 days
Outline: as §2

rice (Oryza sativa) = experiment: as above; conditions: 250 g ai/ha, Flood, applied to paddy water, evaluated after 13 days
Outline: as §2

[27] = tested on: barnyardgrass (Echinochloa crusgalli); experiment: as above; conditions: 250 g ai/ha, Flood, applied to paddy water, evaluated after 13 days
Outline: as §2

[28] = 62 g ai/ha, postemergence, 10 days, 0 = no effect, 100 = complete control
[29] = Postemergence, 16 g ai/ha, greenhouse 10 days, 0 no effect, 100 complete control
[30] = 62 g ai/ha, 0 = no effect, 100 = complete control

CC1(C(=O)NC2CC=C(C(=O)NS(=O)(=O)C3CC3)C2)CN(c2cc(F)cc(F)c2)C(=O)O1 (racemic) [Compound 90]
Ryegrass, Italian plant response rating (0-100) [1, 28]: 70 | Ryegrass, Italian plant response rating (0 to 100 scale) [1, 29]: 20 | Corn plant response rating (0-100) (corn (Zea mays) [2]; [28]): 100 | Corn plant response rating (0 to 100 scale) (corn (Zea mays) [2]; [29]): 30 | Soybean plant response rating (0-100) (soybean (Glycine max) [3]; [28]): 40 | Soybean plant response rating (0 to 100 scale) (soybean (Glycine max) [3]; [29]): 30 | Foxtail, Green plant response rating (0-100) [4, 28]: 80 | Foxtail, Green plant response rating (0 to 100 scale) [4, 29]: 0 | Oat, Wild plant response rating (0-100) [5, 28]: 50 | Oat, Wild plant response rating (0 to 100 scale) [5, 29]: 20 | Pigweed, Palmer plant response rating (0-100) [6, 28]: 70 | Pigweed, Palmer plant response rating (0 to 100 scale) [6, 29]: 0 | Kochia plant response rating (0-100) (kochia (Bassia scoparia) [7]; [28]): 80 | Kochia plant response rating (0 to 100 scale) (kochia (Bassia scoparia) [7]; [29]): 70 | Ragweed plant response rating (0-100) [8, 28]: 30 | Ragweed plant response rating (0 to 100 scale) [8, 29]: 0 | Barnyardgrass plant response rating (0-100) [9, 28]: 90 | Barnyardgrass plant response rating (0 to 100 scale) [9, 29]: 30 | Galium plant response rating (0 to 100 scale) [10]: 40 | Wheat plant response rating (0-100) [11, 28]: 70 | Wheat plant response rating (0 to 100 scale) [11, 29]: 40 | Horseweed plant response rating (0-100) [12, 28]: 60 | Horseweed plant response rating (0 to 100 scale) [12, 29]: 0 | Blackgrass plant response rating (0-100) [13, 28]: 80 | Blackgrass plant response rating (0 to 100 scale) [13, 29]: 10 | Ryegrass, Italian plant response rating ([14]; 16 g ai/ha, 0 to 100 scale): 0 | Ryegrass, Italian plant response rating (0-100) [14, 30]: 0 | Corn plant response rating (corn (Zea mays) [15]; 16 g ai/ha, 0 to 100 scale): 0 | Corn plant response rating (0-100) (corn (Zea mays) [15]; [30]): 0 | Soybean plant response rating (soybean (Glycine max) [16]; 16 g ai/ha, 0 to 100 scale): 0 | Soybean plant response rating (0-100) (soybean (Glycine max) [16]; [30]): 10 | Foxtail, Green plant response rating ([17]; 16 g ai/ha, 0 to 100 scale): 0 | Foxtail, Green plant response rating (0-100) [17, 30]: 10 | Oat, Wild plant response rating ([18]; 16 g ai/ha, 0 to 100 scale): 0 | Oat, Wild plant response rating (0-100) [18, 30]: 0 | Pigweed, Palmer plant response rating ([19]; 16 g ai/ha, 0 to 100 scale): 10 | Pigweed, Palmer plant response rating (0-100) [19, 30]: 20 | Kochia plant response rating (kochia (Bassia scoparia) [20]; 16 g ai/ha, 0 to 100 scale): 0 | Kochia plant response rating (0-100) (kochia (Bassia scoparia) [20]; [30]): 0 | Ragweed plant response rating ([21]; 16 g ai/ha, 0 to 100 scale): 0 | Ragweed plant response rating (0-100) [21, 30]: 0 | Barnyardgrass plant response rating ([22]; 16 g ai/ha, 0 to 100 scale): 0 | Barnyardgrass plant response rating (0-100) [22, 30]: 0 | Wheat plant response rating ([23]; 16 g ai/ha, 0 to 100 scale): 0 | Wheat plant response rating (0-100) [23, 30]: 0 | Blackgrass plant response rating ([24]; 16 g ai/ha, 0 to 100 scale): 0 | Blackgrass plant response rating (0-100) [24, 30]: 0 | Plant response rating, Ducksalad (0 to 100 scale, 0 is no effect and 100 is complete control) [25]: 0 | Plant response rating, Sedge, Umbrella (0 to 100 scale, 0 is no effect and 100 is complete control) [26]: 0 | Plant response rating, Rice (0 to 100 scale, 0 is no effect and 100 is complete control) (rice (Oryza sativa)): 0 | Plant response rating, Barnyardgrass (0 to 100 scale, 0 is no effect and 100 is complete control) [27]: 0
